Assay results published in publication PMC6006164, “Natural cyclopeptide RA-V inhibits the NF-κB signaling pathway by targeting TAK1” (Cell Death & Disease, 2018).

Experiments:
[1] = system: HEK293T and HeLa cells; assay: MTT assay; assay type: cell-based; conditions: under reporter-assay treatment, high concentrations
Procedure: (§1) Fig. 1 RA-V inhibits TNF-α- and LPS-induced activation of NF-κB. a Chemical structure of RA-V. b RA-V inhibited the NF-κB signaling pathway in a dose-dependent manner. HEK293T or HeLa cells were transfected with the 5 × κB-luciferase and pTK-Renilla reporters. Twenty-four hours after transfection, the cells were incubated with various concentrations of RA-V for 6 h, and then treated with 10 ng/mL TNF-α for 2 h before the luciferase activity assay and MTT assay. c RA-V reduced TNF-α-induced expression of NF-κB target genes. HEK293T or HeLa cells were treated with various concentrations of RA-V for 24 h and stimulated with 10 ng/mL TNF-α for 2 h. The expression of the NF-κB target genes, IL-8, MCP-1, and E-selectin was measured by quantitative RT-PCR and normalized to GADPH expression. d RA-V inhibited TNF-α-induced p65 phosphorylation, IκBα phosphorylation and IκBα degradation. […] The expression of IL-6 was measured. h RA-V inhibited LPS-induced p65 phosphorylation, IκBα phosphorylation. […] The protein expression was measured. i RA-V inhibited LPS-induced IL-6 production. […] The expression of IL-6 was measured.
HEK293T cells (5 × 10^3 cells/well) or HeLa cells (3 × 10^3 cells/well) were seeded in a 96-well plate with 100 μL medium and cultured for 12 h in a CO2 incubator. […] After 4 h, the medium was replaced with 150 μL DMSO, and the optical density was measured at […] (Molecular Devices). […]

[2] = system: p65 nuclear translocation; assay: Immunofluorescence assay of p65 nuclear translocation; assay type: cell-based; conditions: HeLa; 200 nM RA-V 6 h, 10 ng/mL TNF-α 15 min
[3] = system: RAW264.7 cells; assay: LPS-induced NF-κB activation in RAW264.7 cells; assay type: cell-based; conditions: 1 μg/mL LPS 3 h, dose-dependent
Procedure: as §1, with “degradation. HEK293T or HeLa cells were incubated with various concentrations of RA-V for 24 h and treated with 10 ng/mL TNF-α for 10 min. The cell lysates were prepared and subjected to western blot analysis with the indicated antibodies. e RA-V inhibited TNF-α-induced IL-8 production.” for “degradation.”

[4] = Toxicity assessment in xenograft-bearing mice; assay type: in vivo, female athymic nude BALB/c mice
Source text: Fig. 8 Analysis of potential side effects for treatment of RA-V. a–b The change curves of body weights of BALB/c bearing HCT116 (a) or HepG2 (b) xenograft tumors (n = 8 or 7). c Representative hematoxylin–eosin staining of heart, kidney, spleen, lung, and liver from vehicle- and various concentrations of RA-V-treated group. d The evaluation of serum ALT, AST, and creatine kinase for vehicle- and various concentrations of the RA-V-treated group
In total, 2 × 10^6 HCT116 or 3 × 10^6 HepG2 cells were subcutaneously injected into the right dorsal flank of 6- to 8-week-old female athymic nude BALB/c mice. After tumor volumes reached 100 mm^3, the tumor-bearing mice were randomly divided into several groups. The mice bearing HCT116 (n = 8) or HepG2 xenograft tumors (n = 7) were received the intravenous injection of vehicle micelles or various concentrations of RA-V micelles every other day. 5-FU (10 mg/kg) group as positive control. Body weights and tumor volumes were recorded every other day. Tumor volumes were calculated using the following formula: tumor volume (mm^3) = 0.52 × length × width^2. At the end of the experiments, the mice were killed. Tumor xenografts of each mouse were removed and weighed. Part of each tumor tissue was stored at liquid nitrogen for quantitative RT-PCR analysis. Organs (heart, kidney, spleen, lung, and liver) from killed mice were also removed, fixed in the 4% formaldehyde solution for microscopic examination by hematoxylin–eosin staining. Serum alanine transaminase(ALT), aspartate transaminase(AST), and creatine kinase(CK) were determined using relevant kits (Nanjing Jiancheng) according to the manufacturer’s specific instructions.

RA-V
antiproliferative effect (MTT) [1]: only a slight antiproliferative effect
TNF-α-induced p65 nuclear translocation [2]: significantly blocked
LPS-induced IL-6 production, IκBα phosphorylation and p65 phosphorylation [3]: inhibited
body weight ([4]; HCT116 or HepG2 xenograft mice, measured every other day, vs control): no obvious changes
toxic pathological changes in heart, kidney, spleen, lung and liver ([4]; hematoxylin–eosin staining, vs control): no obvious toxic pathological changes
levels of serum ALT, AST and creatine kinase ([4]; liver and heart toxicity, vs vehicle): no significant changes
